# Results from paper PMC8445441, “Elucidating the mechanism by which synthetic helper peptides sensitize Pseudomonas aeruginosa to multiple antibiotics” (PLoS Pathogens, 2021).
# Where two headings read alike, the source gives them in different places. Non-standard residues stand in square brackets, D forms with d. Residues, ends and D or L forms follow the SMILES beside them. No end group written: not given here. *: point of attachment. βNA = c1ccc2cc(N*)ccc2c1
# Columns and labels:
# P. aeruginosa PAO1 = assay: microbe, parasite or virus in culture; conditions: for MICa: the MIC of antibiotics: antibiotic alone
# Protocol: (§1) The MIC tests were performed in triplicate using broth microdilution in accordance with Clinical and Laboratory Standards Institute (CLSI) recommendations (http://iacld.ir/DL/public/CLSI-2018-M100-S28.pdf). Briefly, drugs were two-fold diluted in MHB and mixed with an equal volume of bacterial suspensions containing approximately 1 × 10^6 CFU/mL in 96-well microliter plate. After 18 h incubation at 37 °C, the MIC values were defined as the lowest concentrations of antibiotics with no visible growth of bacteria. […] Otherwise, 1/4 MIC of the peptide was used in the combination. […] If needed, membrane compounds PG, PE, PC, CL or LPS, or membrane stabilizers MgCl2 or CaCl2, or efflux pumps inhibitor PAβN were added to the broth medium to clarify the effect of other substances on the synergy between peptide and antibiotics. All the tests were performed in triplicate.
# The fractional inhibitory concentration (FIC) indices were calculated using the previously described formula FICI = FICa + FICb = MICac/MICa + MICbc/MICb. The FICI was interpreted according to EUCAST [65] as follows: synergistic, FICI≤0.5; additive, 0.5<FICI≤1; indifferent, 1<FICI<2; antagonistic, FICI ≥2. For the FICI calculations, twice the highest concentration tested was used in the cases where the MIC was not reached.
# [1] = system: clinical P. aeruginosa isolates; assay: microbe, parasite or virus in culture; conditions: Pseudomonas aeruginosa, 18 h, antibiotic alone
# Protocol: The bacterial strains, primers and plasmids used in this study are listed in S5 Table. […] Bacteria were cultured in LB medium or cation-adjusted Muller-Hinton broth (CA-MHB) at 37 °C with agitation at 220 rpm. All the antibiotics and chemical compounds used in this study were purchased from Sigma-Aldrich.
# as §1
# [2] = S3 Table, PAO1, antibiotic + 2 μM D-11
# [3] = S3 Table, PAO1, antibiotic + 4 μM D-11
# [4] = PAO1, peptide + azithromycin, twice the highest concentration used where MIC not reached
# [5] = peptide alone, PAO1, broth microdilution in MHB, 18 h, 37 °C, triplicate
compound,measurement,setting,value
CCO/N=C(\C(=O)N[C@@H]1C(=O)N2C(C(=O)[O-])=C(Sc3nc(-c4cc[n+](C)cc4)cs3)CS[C@H]12)c1nsc(N)n1 [Ceftaroline],FICI,P. aeruginosa PAO1; [2],1.063
same,FICI,P. aeruginosa PAO1; [3],1.125
same,MICac: the MIC for the antibiotic in the combination,"P. aeruginosa PAO1; S3 Table, PAO1, with 2 μM D-11",128/128 μM
same,MICac: the MIC for the antibiotic in the combination,"P. aeruginosa PAO1; S3 Table, PAO1, with 4 μM D-11",128/128 μM
same,MICa: the MIC of antibiotics,"P. aeruginosa PAO1; S3 Table, PAO1",128/128 μM
CC1=C(C(=O)O)N2C(=O)[C@@H](NC(=O)[C@H](N)c3ccccc3)[C@H]2SC1 [Cephalexin],FICI,P. aeruginosa PAO1; [2],1.063
same,FICI,P. aeruginosa PAO1; [3],1.125
CC[C@@H](C)[C@@H](NC(=O)[C@H](N)CCCNC(=N)N)C(=O)N[C@@H](C(=O)N[C@H](CCC(N)=O)C(=O)N[C@H](CCCNC(=N)N)C(=O)N[C@@H](C(=O)N[C@H](CCCNC(=N)N)C(=O)N[C@H](CCCNC(=N)N)C(=O)N[C@H](Cc1c[nH]c2ccccc12)C(=O)N[C@H](CC(C)C)C(=O)N[C@H](CCCNC(=N)N)C(N)=O)[C@H](C)CC)C(C)C [D-11-k(r)] (H-[dR][dI][dV][dQ][dR][dI][dR][dR][dW][dL][dR]-NH2),FICI,"P. aeruginosa PAO1; PAO1, peptide + Azithromycin, higher peptide concentration line",0.156
same,FICI,"P. aeruginosa PAO1; PAO1, peptide + Azithromycin, lower peptide concentration line",0.188
same,FICI,"P. aeruginosa PAO1; PAO1, peptide + Clarithromycin, higher peptide concentration line",0.156
same,FICI,"P. aeruginosa PAO1; PAO1, peptide + Clarithromycin, lower peptide concentration line",0.125
same,FICI,"P. aeruginosa PAO1; PAO1, peptide + Erythromycin, higher peptide concentration line",0.188
same,FICI,"P. aeruginosa PAO1; PAO1, peptide + Erythromycin, lower peptide concentration line",0.188
same,FICI,"P. aeruginosa PAO1; PAO1, peptide + Spiramycin, higher peptide concentration line",1.125
same,FICI,"P. aeruginosa PAO1; PAO1, peptide + Spiramycin, lower peptide concentration line",1.063
same,FICI,"P. aeruginosa PAO1; PAO1, peptide + Telithromycin, higher peptide concentration line",0.188
same,FICI,"P. aeruginosa PAO1; PAO1, peptide + Telithromycin, lower peptide concentration line",0.188
same,FICI,P. aeruginosa PAO1; [4],0.156
same,MICb: the MIC of the peptide,"P. aeruginosa PAO1; S1 Table, peptide alone, PAO1",64 µM
CC[C@@H](C)[C@@H](NC(=O)[C@@H](CC(C)C)NC(=O)[C@@H](CCCNC(=N)N)NC(=O)[C@@H](Cc1c[nH]c2ccccc12)NC(=O)[C@H](N)CC(C)C)C(=O)N[C@H](CCCNC(=N)N)C(=O)N[C@H](CCCNC(=N)N)C(=O)N[C@H](Cc1ccccc1)C(=O)N[C@H](CC(C)C)C(=O)N[C@H](CCCNC(=N)N)C(=O)N[C@H](CCCNC(=N)N)C(N)=O [D-RW-BP100R] (H-[dL][dW][dR][dL][dI][dR][dR][dF][dL][dR][dR]-NH2),FICI,P. aeruginosa PAO1; [4],1.250
same,MICb: the MIC of the peptide,P. aeruginosa PAO1; [5],4 µM
CC[C@@H](C)[C@@H](NC(=O)[C@@H](CCCNC(=N)N)NC(=O)[C@@H](CCCNC(=N)N)NC(=O)[C@@H](Cc1ccccc1)NC(=O)[C@@H](CC(C)C)NC(=O)[C@@H](CCCNC(=N)N)NC(=O)[C@H](N)CCCNC(=N)N)C(=O)N[C@H](CC(C)C)C(=O)N[C@H](CCCNC(=N)N)C(=O)N[C@H](Cc1c[nH]c2ccccc12)C(=O)N[C@H](CC(C)C)C(N)=O [D-RW-BP100] (H-[dR][dR][dL][dF][dR][dR][dI][dL][dR][dW][dL]-NH2),FICI,P. aeruginosa PAO1; [4],1.250
same,MICb: the MIC of the peptide,P. aeruginosa PAO1; [5],8 µM
CC[C@H](C)[C@H](NC(=O)[C@H](CCCCN)NC(=O)[C@H](CCC(=O)O)NC(=O)[C@H](CCCCN)NC(=O)[C@H](CO)NC(=O)[C@H](CCCCN)NC(=O)[C@H](CCCNC(=N)N)NC(=O)[C@H](Cc1ccccc1)NC(=O)[C@H](Cc1ccccc1)NC(=O)[C@H](CC(=O)O)NC(=O)CNC(=O)[C@H](CC(C)C)NC(=O)[C@@H](N)CC(C)C)C(=O)NCC(=O)N[C@@H](CCCCN)C(=O)N[C@@H](CCC(=O)O)C(=O)N[C@@H](Cc1ccccc1)C(=O)N[C@@H](CCCCN)C(=O)N[C@@H](CCCNC(=N)N)C(=O)N[C@H](C(=O)N[C@H](C(=O)N[C@@H](CCC(N)=O)C(=O)N[C@@H](CCCNC(=N)N)C(=O)N[C@H](C(=O)N[C@@H](CCCCN)C(=O)N[C@@H](CC(=O)O)C(=O)N[C@@H](Cc1ccccc1)C(=O)N[C@@H](CC(C)C)C(=O)N[C@@H](CCCNC(=N)N)C(=O)N[C@@H](CC(N)=O)C(=O)N[C@@H](CC(C)C)C(=O)N[C@H](C(=O)N1CCC[C@H]1C(=O)N[C@@H](CCCNC(=N)N)C(=O)N[C@H](C(=O)N[C@@H](CCC(=O)O)C(=O)N[C@@H](CO)C(=O)O)[C@@H](C)O)C(C)C)[C@@H](C)CC)C(C)C)[C@@H](C)CC [LL-37],FICI,P. aeruginosa PAO1; [4],0.75
Cc1ncc([N+](=O)[O-])n1CCO [Metronidazole],FICI,P. aeruginosa PAO1; [2],1.063
same,FICI,P. aeruginosa PAO1; [3],1.125
Cc1onc(-c2ccccc2)c1C(=O)N[C@@H]1C(=O)N2[C@@H]1SC(C)(C)[C@@H]2C(=O)O [Oxacillin],FICI,P. aeruginosa PAO1; [2],1.063
same,FICI,P. aeruginosa PAO1; [3],1.125
NC(N)=NCCC[C@H](NC(=O)[C@@H](N)Cc1ccccc1)C(=O)Nc1ccc2ccccc2c1 [PAβN] (H-Phe-Arg-βNA),reduction of the MIC of azithromycin by PAβN,"P. aeruginosa PAO1; PAO1, in the absence of D-11",64 fold
same,reduction of the MIC of azithromycin by PAβN,"P. aeruginosa PAO1; PAO1, in the presence of D-11, higher concentration of PAβN",two
N=C(N)c1ccc(OCCCCCOc2ccc(C(=N)N)cc2)cc1 [Pentamidine],FICI,P. aeruginosa PAO1; [2],1.063
same,FICI,P. aeruginosa PAO1; [3],1.125
same,MICac: the MIC for the antibiotic in the combination,"P. aeruginosa PAO1; S3 Table, PAO1, with 2 μM D-11",128/128 μM
same,MICac: the MIC for the antibiotic in the combination,"P. aeruginosa PAO1; S3 Table, PAO1, with 4 μM D-11",128/128 μM
same,MICa: the MIC of antibiotics,"P. aeruginosa PAO1; S3 Table, PAO1",128/128 μM
CC[C@@H](C)[C@@H](NC(=O)[C@@H](CCCCN)NC(=O)[C@@H](CCCCN)NC(=O)[C@@H](Cc1c[nH]c2ccccc12)NC(=O)[C@@H](CC(C)C)NC(=O)[C@H](N)CCCNC(=N)N)C(=O)N[C@H](CCCNC(=N)N)C(=O)N[C@H](CCC(N)=O)C(=O)N[C@@H](C(=O)N[C@@H](C(=O)N[C@H](CCCNC(=N)N)C(=O)N[C@H](CCCCN)C(N)=O)[C@H](C)CC)C(C)C [Peptide D-11R] (H-[dR][dL][dW][dK][dK][dI][dR][dQ][dV][dI][dR][dK]-NH2),MICb: the MIC of the peptide,"P. aeruginosa PAO1; PAO1, 18 h",32 µM
CN(C)[C@@H]1C(O)=C(C(N)=O)C(=O)[C@@]2(O)C(O)=C3C(=O)c4c(O)cccc4[C@@](C)(O)[C@H]3C[C@@H]12 [Tetracycline],MIC,"[1]; read-out: Antibiotic sensibility (MIC) of clinical P. aeruginosa isolate AUMC-Pa-2, strain AUMC-Pa-2",64 µM
same,MIC,"[1]; read-out: Antibiotic sensibility (MIC) of clinical P. aeruginosa isolate AUMC-Pa-3, strain AUMC-Pa-3",64 µM
same,MIC,"[1]; read-out: Antibiotic sensibility (MIC) of clinical P. aeruginosa isolate AUMC-Pa-5, strain AUMC-Pa-5",64 µM
same,MIC,"[1]; read-out: Antibiotic sensibility (MIC) of clinical P. aeruginosa isolate AUMC-Pa-6, strain AUMC-Pa-6",64 µM
same,MIC,"[1]; read-out: Antibiotic sensibility (MIC) of clinical P. aeruginosa isolate HM-214, strain HM-214",64 µM
same,MIC,"[1]; read-out: Antibiotic sensibility (MIC) of clinical P. aeruginosa isolate NR-31040, strain NR-31040",64 µM
same,MIC,"[1]; read-out: Antibiotic sensibility (MIC) of clinical P. aeruginosa isolate NR-31041, strain NR-31041",64 µM
GIGKHVGKALKGLKGLLKGLGEC [ADP-1],MICb: the MIC of the peptide,P. aeruginosa PAO1; [5],16 µM
